{"source": "patent US4136192A", "about": "“4-Hydroxy-3-nitro (cyano) coumarins” (Beecham Group Limited, priority 1975, dated 1979)", "data": [{"tested_on": "slow reacting substance of anaphylaxis (SRS-A)", "assay": "SRS-A antagonism on isolated guinea pig ileum", "set-up": "species or system guinea pig ileum (SRS-A from rat)", "settings": "isolated guinea pig ileum strips, rat SRS-A, tyrode with atropine and mepyramine; 50% inhibition per method; read-out: SRS-A antagonism on Guinea Pig Ileum: Approximate concentration to give inhibition of a than maximal response to SRS-A", "from_the_text": "(§1) The compounds have been evaluated as direct antagonists of slow reacting substance of anaphylaxis (SRS-A) by assay using the isolated guinea pig ileum.\n(§2) SRS-A rat was obtained from the peritoneal cavity of the rat after passive peritoneal anaphylaxis by a method based on that of R. P. Orange, D. J. Stechschulte and K. F. Austen, J. Immunology, 105 1087 (1970) as described by B. A. Spicer, J. W. Ross and H. Smith, Clin. exp. Immunol. 1975, 21, 419. The sensitizing serum containing reaginic antibody was produced in rats as described by B. A. Spicer, et. al. ibid.\n(§3) 2 ml of a 1 in 5 dilution of the sensitizing serum was injected by the peritoneal route into recipient rats and after 2 hours, 5 ml of tyrode solution containing 0.4 mg/ml ovalbumin (Sigma Grade III) and 50 μg/ml heparin was injected by the same route. Five minutes after challenge the rats were stunned and bled and the peritoneal fluids collected into polycarbonate tubes in ice. After centrifugation at 150 g for 5 minutes the supernatants were combined, heated in a boiling water bath for 5 minutes, cooled and stored at -20° C. The combined peritioneal fluids contained SRS-A and were used in the antagonism studies.\n(§4) The SRS-A assays were carried out on isolated strips of guinea pig ileum in tyrode solution containing atropine 5 × 10^-7 M and mepyramine 10^-6 M as described by W. E. Brocklehurst, J. Physiology, 151, 416 (1960).\n(§5) The activity of the antagonists was determined by their ability to reduce submaximal responses induced by SRS-A. The antagonists were added to a 4 ml bath in 0.1 ml volumes in aqueous solution half a minute before the addition of SRS-A and were present during induced contraction. Two or three concentrations of antagonists were used and the percentage inhibition of the SRS-A response plotted against the bath concentration of antagonist. The line of best fit was drawn and the concentration to cause 50% inhibition IC50 read graphically.", "units": {"IC50": "nM"}, "values": [{"smiles": "CC(=O)c1ccc(OCCCOc2ccc3c(O)c([N+](=O)[O-])c(=O)oc3c2)cc1", "note": "[Example 136, 7-(3-[4-Acetylphenoxy]propoxy)-4-hydroxy-3-nitrocoumarin]", "IC50": 1000}, {"smiles": "COC(=O)c1ccc(OCCCOc2ccc3c(O)c([N+](=O)[O-])c(=O)oc3c2)cc1", "note": "[Example 135, 7-(3-[4-Carbomethoxyphenoxy]propoxy)-4-hydroxy-3-nitrocoumarin]", "IC50": 10000}, {"smiles": "CC(=O)c1ccc(OCC(O)COc2ccc3c(O)c([N+](=O)[O-])c(=O)oc3c2)c(C)c1O", "note": "(centres unmarked) [Example 144, 7-(3-[4-Acetyl-3-hydroxy-2-methyl-phenoxy]-2-hydroxy-propoxy)-4-hydroxy-3-nitrocoumarin]", "IC50": 100}, {"smiles": "O=c1oc2ccc(OCCCCCOc3ccccc3)cc2c(O)c1[N+](=O)[O-]", "note": "[Example 151, 4-Hydroxy-3-nitro-6-(5-phenoxypentoxy)-coumarin]", "IC50": 1000}, {"smiles": "O=c1oc2cc(OCCCOc3ccc(F)cc3)ccc2c(O)c1[N+](=O)[O-]", "note": "[Example 159, 7-(3-[4-Fluorophenoxy]propoxy)-4-hydroxy-3-nitrocoumarin]", "IC50": 100}, {"smiles": "O=c1oc2cc(OCC(O)COc3ccccc3)ccc2c(O)c1[N+](=O)[O-]", "note": "(centres unmarked) [Example 141, 4-Hydroxy-7-(2-hydroxy-3-phenoxypropoxy)-3-nitrocoumarin]", "IC50": 10000}, {"smiles": "COc1ccc(OCCCOc2ccc3c(O)c([N+](=O)[O-])c(=O)oc3c2)cc1", "note": "[Example 158, 4-Hydroxy-7-(3-[4-methoxyphenoxy]propoxy)-3-nitrocoumarin]", "IC50": 1000}, {"smiles": "CCCc1c(OCCCOc2ccccc2)ccc2c(O)c([N+](=O)[O-])c(=O)oc12", "note": "[Example 131, 4-Hydroxy-3-nitro-7-(3-phenoxy-propoxy) 8-n-propylcoumarin]", "IC50": 1000}, {"smiles": "CC(=O)c1ccc(CCCOc2ccc3c(O)c([N+](=O)[O-])c(=O)oc3c2)cc1", "note": "[Example 120, 7-(3-[4-Acetylphenyl]propoxy)-4-hydroxy-3-nitrocoumarin]", "IC50": 1000}, {"smiles": "O=c1oc2cc(OCCCCc3ccccc3)ccc2c(O)c1[N+](=O)[O-]", "note": "[Example 121, 4-Hydroxy-3-nitro-7-(4-phenylbutoxy) coumarin]", "IC50": 1000}, {"smiles": "O=c1oc2cc(OCCCCCOc3ccccc3)ccc2c(O)c1[N+](=O)[O-]", "note": "[Example 152, 4-Hydroxy-3-nitro-7-(5-phenoxypentoxy)-coumarin]", "IC50": 1000}, {"smiles": "CCc1cc2c(O)c([N+](=O)[O-])c(=O)oc2cc1OCCCOc1ccccc1", "note": "[Example 132, 6-Ethyl-4-hydroxy-3-nitro-7-(3-phenoxy-propoxy) coumarin]", "IC50": 10000}, {"smiles": "CC(=O)c1ccc(OCCCOc2ccc3c(O)c([N+](=O)[O-])c(=O)oc3c2)cc1O", "note": "[Example 138, 7-(3-[4-Acetyl-3-hydroxyphenoxy]propoxy)-4-hydroxy-3-nitrocoumarin]", "IC50": 1000}, {"smiles": "CC(=O)c1ccc(OCC(O)COc2ccc3c(O)c([N+](=O)[O-])c(=O)oc3c2)cc1O", "note": "(centres unmarked) [Example 143, 7-(3-[4-Acetyl-3-hydroxyphenoxy]2-hydroxypropoxy)-4-hydroxy-3-nitrocoumarin]", "IC50": 10000}, {"smiles": "CCCc1ccccc1OCC(O)COc1ccc2c(O)c([N+](=O)[O-])c(=O)oc2c1", "note": "(centres unmarked) [Example 163, 4-Hydroxy-7-(2-hydroxy3-[2-n-propylphenoxy]propoxy)-3-nitro-coumarin]", "IC50": 100}, {"smiles": "O=C(O)c1ccc(OCCCOc2ccc3c(O)c([N+](=O)[O-])c(=O)oc3c2)cc1", "note": "[Example 134, 7-(3-[4-Carboxyphenoxy]propoxy)-4-hydroxy-3-nitrocoumarin]", "IC50": 10000}, {"smiles": "O=C(O)c1ccc(OCC(O)COc2ccc3c(O)c([N+](=O)[O-])c(=O)oc3c2)cc1", "note": "(centres unmarked) [Example 140, 7-(3-[4-Carboxyphenoxy]-2-hydroxy-propoxy)-4-hydroxy-3-nitrocoumarin]", "IC50": 10000}, {"smiles": "O=c1oc2ccc(OCCc3ccccc3)cc2c(O)c1[N+](=O)[O-]", "note": "[Example 115, 4-Hydroxy-3-nitro-6-(2-phenylethoxy) coumarin]", "IC50": 10000}, {"smiles": "O=c1oc2ccc(OCCCOc3ccccc3)cc2c(O)c1[N+](=O)[O-]", "note": "[Example 128, 4-Hydroxy-3-nitro-6-(3-phenoxypropoxy) coumarin]", "IC50": 1000}, {"smiles": "O=c1oc2ccc(OCCCc3ccccc3)cc2c(O)c1[N+](=O)[O-]", "note": "[Example 118, 4-Hydroxy-3-nitro-6-(3-phenylpropoxy) coumarin]", "IC50": 1000}, {"smiles": "O=c1oc2cc(OCCCOc3ccccc3)ccc2c(O)c1[N+](=O)[O-]", "note": "[Example 129, 4-Hydroxy-3-nitro-7-(3-phenoxypropoxy) coumarin]", "IC50": 1000}, {"smiles": "Cc1ccc(OCCCOc2ccc3c(O)c([N+](=O)[O-])c(=O)oc3c2)c([N+](=O)[O-])c1", "note": "[Example 137, 4-Hydroxy-7-(3-[4-methyl-2-nitrophenoxy]propoxy)-3-nitrocoumarin]", "IC50": 10000}, {"smiles": "O=c1oc2cc(OCCOc3ccccc3)ccc2c(O)c1[N+](=O)[O-]", "note": "[Example 126, 4-Hydroxy-3-nitro-7-(2-phenoxyethoxy) coumarin]", "IC50": 10000}, {"smiles": "Cc1ccc(CCCCOc2ccc3c(O)c([N+](=O)[O-])c(=O)oc3c2)cc1", "note": "[Example 123, 4-Hydroxy-7-(4-[4-methylphenyl]butoxy)-3-nitrocoumarin]", "IC50": 1000}, {"smiles": "O=c1oc2cc(OCCCOc3ccc(-c4ccccc4)cc3)ccc2c(O)c1[N+](=O)[O-]", "note": "[Example 161, 4-Hydroxy-7-(3-[4-phenylphenoxy]propoxy)-3-nitro-coumarin]", "IC50": 10000}, {"smiles": "O=c1oc2cc(OCCCOc3ccc4c(c3)CCCC4)ccc2c(O)c1[N+](=O)[O-]", "note": "[Example 162, 4-Hydroxy-3-nitro-7-(3-[5,6,7,8-tetrahydro-2-naphthyloxy]propoxy) coumarin]", "IC50": 10000}, {"smiles": "O=c1oc2ccc(OCCCCCCOc3ccccc3)cc2c(O)c1[N+](=O)[O-]", "note": "[Example 153, 4-hydroxy-3-nitro-6-(6-phenoxyhexoxy) coumarin]", "IC50": 100}, {"smiles": "CCCc1c(OCCCOc2ccc3c(O)c([N+](=O)[O-])c(=O)oc3c2)ccc(C(C)=O)c1O", "note": "[Example 139, 7-(3-[4-Acetyl-3-hydroxy-2-n-propylphenoxy]propoxy)-4-hydroxy-3-nitrocoumarin]", "IC50": 100}, {"smiles": "Cc1cccc(OCCCOc2ccc3c(O)c([N+](=O)[O-])c(=O)oc3c2)c1", "note": "[Example 156, 4-Hydroxy-7-(3-[3-methylphenoxy]propoxy)-3-nitrocoumarin]", "IC50": 1000}, {"smiles": "Cc1cc(OCCCOc2ccccc2)cc2oc(=O)c([N+](=O)[O-])c(O)c12", "note": "[Example 130, 4-Hydroxy-5-methyl-3-nitro-7-(3-phenoxypropoxy)]", "IC50": 1000}, {"smiles": "N#Cc1ccc(OCCCOc2ccc3c(O)c([N+](=O)[O-])c(=O)oc3c2)cc1", "note": "[Example 160, 7-(3[4-Cyanophenoxy]-propoxy)-4-hydroxy-3-nitrocoumarin]", "IC50": 10000}, {"smiles": "O=c1oc2cc(OCCCCOc3ccccc3)ccc2c(O)c1[N+](=O)[O-]", "note": "[Example 150, 4-Hydroxy-3-nitro-7-(4-phenoxybutoxy)-coumarin]", "IC50": 1000}, {"smiles": "O=c1oc2cc(OCCc3ccccc3)ccc2c(O)c1[N+](=O)[O-]", "note": "[Example 116, 4-Hydroxy-3-nitro-7-(2-phenylethoxy) coumrin]", "IC50": 1000}, {"smiles": "O=c1oc2cc(OCCCOc3ccc(Cl)cc3)ccc2c(O)c1[N+](=O)[O-]", "note": "[Example 133, 7-(3-[4-Chlorophenoxy]propxy-4-hydroxy-3-nitrocoumarin]", "IC50": 1000}, {"smiles": "CCCc1c(OCC(O)COc2ccc3c(O)c([N+](=O)[O-])c(=O)oc3c2)ccc(C(C)=O)c1O", "note": "(centres unmarked) [Example 114, 7-(3-[4-Acetyl-3-hydroxy-2-n-propylphenoxy]-2-hydroxypropoxy)-4-hydroxy-3-nitrocoumarin]", "IC50": 10}, {"smiles": "Cc1ccc(OCCCOc2ccc3c(O)c([N+](=O)[O-])c(=O)oc3c2)cc1", "note": "[Example 157, 4-Hydroxy-7-(3-[4-methylphenoxy]propoxy)-3-nitrocoumarin]", "IC50": 1000}, {"smiles": "O=c1oc2cc(OCCCCc3ccc(Cl)cc3)ccc2c(O)c1[N+](=O)[O-]", "note": "[Example 122, 7-(4-[4-Chlorophenyl]butoxy)-4-hydroxy-3-nitrocoumarin]", "IC50": 1000}, {"smiles": "O=c1oc2cc(OCCCc3ccccc3)ccc2c(O)c1[N+](=O)[O-]", "note": "[Example 119, 4-Hydroxy-3-nitro-7-(3-phenylpropoxy) coumarin]", "IC50": 1000}, {"smiles": "O=c1oc2ccc(OCCOc3ccccc3)cc2c(O)c1[N+](=O)[O-]", "note": "[Example 125, 4-Hydroxy-3-nitro-6-(2-phenoxyethoxy) coumarin]", "IC50": 10000}]}, {"tested_on": "slow reacting substance of anaphylaxis (SRS-A)", "assay": "SRS-A antagonism on isolated guinea pig ileum", "set-up": "species or system guinea pig ileum (SRS-A from rat)", "settings": "second results table, unit inferred; isolated guinea pig ileum, rat SRS-A; read-out: SRS-A antagonism on Guinea Pig ileum: Approximate concentration to give 50% inhibition of a less than maximal response to SRS-A", "from_the_text": "as §1, §2, §3, §4, §5", "units": {"IC50": "nM"}, "values": [{"smiles": "N#CC1C(=O)c2ccc(OCCc3ccccc3)cc2C1=O", "note": "(centres unmarked) [Example 189, 2-Cyano-5-(2-phenylethoxy)indan-1,3-dione]", "IC50": 1000}, {"smiles": "Cc1cc2c(cc1OCCCOc1ccccc1)C(=O)C([N+](=O)[O-])C2=O", "note": "(centres unmarked) [Example 185, 5-Methyl-2-nitro-6-(3-phenoxypropoxy)indan-1,3-dione]", "IC50": 1000}]}]}
